Source: patent publication US9616075B2, “Method of treating and preventing brain impairment using Na+-K+-2Cl-cotransporter isoform 1 inhibitors” (University of Rochester, priority 2012, dated 2017)
Like-named read-outs stand apart in the source and are kept apart here.

Columns and labels:
[1] = tested on: cortical inhibitory networks; experiment: Paired-pulse whisker stimulation (paired-pulse ratio, cortical inhibitory function) in awake mice; type: in vivo, mouse; conditions: for Paired-pulse ratio (PPR): awake mice
Procedure: (§1) Recordings were analyzed offline using pClamp 10.2.
Next, it was investigated how cortical ammonia toxicity leads to neurological dysfunction and seizures. […] Neurobiol. […] The whisker stimulation paradigm elicits two successive field excitatory post-synaptic potentials (fEPSP), where the second fEPSP has lower amplitude due to activation of cortical inhibitory networks (quantified by a paired-pulse ratio (PPR)<1).

[2] = tested on: Otc^spf-ash mice; experiment: Automated video analysis of spontaneous mouse movement; type: in vivo; conditions: Otc^spf-ash mice after systemic NH4Cl load 7.5 mmol kg^−1; bumetanide 30 mg kg^−1 i.p.
Procedure: Otc^spf-ash mice were crossed with Glt-1-eGFP mice for imaging experiments. C57BL/6J mouse and Wistar rat pups were obtained from Jackson Laboratories. To analyze cognitive abilities in OTC mice, two commercial conditioning chambers (H10-11M-TC, Coulbourn Instruments) were adapted for contextual fear conditioning. Over the course of 4 days, mice were trained via a tone/shock protocol and trained to fear contextual and auditory cues. […] Automated movement analysis was performed using AnyMazeTM software analysis of CCD-camera recordings in a standard mouse cage.

[3] = tested on: awake mice; experiment: Myoclonic event (ME) frequency on EEG in awake mice; type: in vivo, mouse
From the text: Electrophysiological Recordings—In vivo recordings were obtained from layer II somatosensory cortex. In situ recordings were obtained from layer II in coronal cortical slices prepared from P21-30 mice. ISMs of K^+ and NH4^+ were pulled from double-barreled pipette glass (PB150-6, WPI) with a tip of 1-3 μm. The pipettes were silanized (coated) with dimethylsilane I (Fluka, Sigma) and filled with either K^+ ionophore I cocktail B (Fluka, selectivity coefficient −1.8 log(K^+/NH4^+)) or NH4+ ionophore I cocktail B (Fluka, −0.9 log(NH4^+/K^+)). […] Electroencephalogram (EEG) signals were externally filtered at 6 Hz (Filter Butterworth Model by Encore, Axopatch 200B by Axon Instruments), band pass filtered at 1-100 Hz and digitized (Digidata 1440A by Axon Instruments). Ion-sensitive microelectrode (ISM) signals were amplified (FD223a by WPI), externally filtered and digitized as above, and reference field potential traces were subtracted. In selected experiments, wireless electromyogram (EMG) and electroencephalogram (EEG) electrodes were implanted (DSI Physiotel®), and an extracellular microelectrode was placed in the thalamus (ventrobasal complex). Recordings were analyzed offline using pClamp 10.2. Myoclonic events (ME) were defined on the EEG as single or multiple 3-9 Hz polyspike and wave discharges (SWD) of 0.2-2 second duration associated with myoclonic jerks determined by video recording, EMG or direct observation.

[4] = 1H-NMR brain amino acid concentrations; type: in vivo, mouse; conditions: 30 minutes after administration, mean±SEM
Procedure: ^1H-NMR Spectroscopy—Mice were anesthetized using 1.5% isoflurane and decapitated. Forebrains (whole brain minus cerebellum/brainstem) were quickly extracted, frozen in liquid nitrogen, and homogenized in 7.5 mL 12% PCA at 0° C. using a micro-sonicator. The homogenate was centrifuged at 25,000 G for 15 minutes, and the supernatants were neutralized to pH 7.0 with KOH over an ice bath. A further 15 minute centrifugation (25,000 G) separated the resultant KClO4, and the supernatant was lyophilized before being reconstituted with 0.65 ml D2O. ^1H-NMR spectra were acquired using a 600 mHz Varian Unity NOVA spectrometer equipped with a triple-axis gradient HCN probe (standard room temperature). Signals were acquired following a 90° pulse with a spectral width of 7200 Hz and 32K data points. The time between pulses was 15 seconds and 64 signals were averaged for each spectrum. The sample temperature was 25° C. Integrals of the relevant peaks were converted to μmol/gram wet-weight and normalized NAA (methyl) to increase inter-sample consistency.

[5] = tested on: pyramidal neurons; experiment: Whole-cell voltage clamp with ramp voltage and GABA application in acute cortical slices (EGABA); type: cell-based, mouse
From the text: (§3) Electrophysiological Recordings—In vivo recordings were obtained from layer II somatosensory cortex. In situ recordings were obtained from layer II in coronal cortical slices prepared from P21-30 mice. ISMs of K^+ and NH4^+ were pulled from double-barreled pipette glass (PB150-6, WPI) with a tip of 1-3 μm. The pipettes were silanized (coated) with dimethylsilane I (Fluka, Sigma) and filled with either K^+ ionophore I cocktail B (Fluka, selectivity coefficient −1.8 log(K^+/NH4^+)) or NH4+ ionophore I cocktail B (Fluka, −0.9 log(NH4^+/K^+)). […] Ion-sensitive microelectrode (ISM) signals were amplified (FD223a by WPI), externally filtered and digitized as above, and reference field potential traces were subtracted. […] Recordings were analyzed offline using pClamp 10.2.
(§4) In Situ Electrophysiology—Coronal cortical slices were prepared from P21-30 mice, as described previously. […] All experiments were performed at 32-35° C. […] Whole-cell patch-clamp recordings were done using electrodes with 3-5 M106 resistance, and an intracellular solution containing 135 mM K-methylsulfate, 10 mM KCl, 10 mM hepes, 5 mM NaCl, 2.5 mM Mg-ATP, 0.3 mM Na-GTP (pH 7.3), containing Alexa Fluor® 350 (Invitrogen). Signals were low-pass filtered at 2 kHz and digitized at 10 kHz using Axopatch MultiClamp 700A and Digidata 1320A (Axon Instruments).

[6] = tested on: Otc^spf-ash mice; experiment: NH4+ and K+ ion-sensitive microelectrode (ISM) recordings from cortex of awake mice; conditions: mean±SEM
Procedure: Body temperature was maintained with a heating pad. For systemic drug treatment, a polyethylene intraperitoneal (i.p.) catheter was surgically implanted to deliver drugs accurately and with minimal manipulation. For cortical drug application artificial cerebrospinal fluid (aCSF) was perfused across the cortex of awake mice at a rate of 2 mL/minute, into a custom-made well with ˜200 μL volume, through tubing with ˜100 μL volume, meaning the entire volume bathing the brain was exchanged approximately every 9 seconds.
Electrophysiological Recordings—In vivo recordings were obtained from layer II somatosensory cortex. […] ISMs of K^+ and NH4^+ were pulled from double-barreled pipette glass (PB150-6, WPI) with a tip of 1-3 μm. The pipettes were silanized (coated) with dimethylsilane I (Fluka, Sigma) and filled with either K^+ ionophore I cocktail B (Fluka, selectivity coefficient −1.8 log(K^+/NH4^+)) or NH4+ ionophore I cocktail B (Fluka, −0.9 log(NH4^+/K^+)). […] Ion-sensitive microelectrode (ISM) signals were amplified (FD223a by WPI), externally filtered and digitized as above, and reference field potential traces were subtracted.
Ion Sensitive Microelectrode (ISM) Fabrication—Ion Sensitive Microelectrodes (ISMs) of K^+ and NH4^+ were pulled from double-barreled pipette glass (PB150-6, WPI) with a tip of 1-3 μm. The pipettes were silanized (coated) with dimethylsilane I (Fluka, Sigma). […] The K^+ ionophore has a selectivity coefficient relative to NH4^+ of −1.8 log (K^+/NH4^+), and the NH4^+ ionophore has a selectivity coefficient relative to K^+ of −0.9 log (NH4^+/K^+). […] The reference barrels were used to record the DC potentials and were filled with 0.15 M NaCl. In selected experiments, single barrel electrodes were also used in combination with single reference electrodes. K^+ and NH4^+ ISM traces were subtracted for interference by calculating the mV response to the increase of the other ion in calibration solutions. All ISMs were calibrated before and after each experiment. […] Calibration data were fitted to the Nikolsky equation to determine electrode slope and interference.

[7] = tested on: Otc^spf-ash mice; experiment: Sensory-motor phenotype score; type: in vivo, mouse; conditions: Otc^spf-ash mice after systemic NH4Cl load 7.5 mmol kg^−1; bumetanide 30 mg kg^−1 i.p.
Procedure: Mouse movement and seizure activity were omitted from this score, because it was desired that these manifestations be independently and more quantitatively represented. The score thus consisted of four elements: hyperacusis (0-2), imbalance (0-3), ataxia/tremor (0-3) and level of consciousness (0-3). A maximum score of 11 represents deep coma (no corneal reflex) whilst 0 represents normal wakefulness. Each animal was scored after the first 5 minutes and then every 15 minutes as they progressed through the stereotypical stages of ammonia neurotoxicity. […] Ataxia/tremor was scored using a gait test, where the mouse was encouraged to walk for a short distance. […] Consciousness was scored as either 0 for awake, 1 loss of scatter reflex, 2 loss of righting reflex (LORR), 3 loss of corneal reflex.

[8] = tested on: Otc^spf-ash mice; experiment: Survival after ammonia overdose (Cox regression); type: in vivo, mouse
Procedure: Where n≧10 for normally distributed data, the unpaired t test or ANOVA were used for independent samples, and paired t test for paired samples. Where n<10 non-parametric tests including Mann-Whitney U and Kruskall-Wallis were used for independent samples, and Wilcoxon signed ranks test for paired samples. Overdose survival was compared using Cox regression model (controlling for the confounding effect of mouse weight).
To test the validity of the present in situ model, awake animals were tested (FIG. 4A). […] To investigate whether this improvement of neuronal function translated into a clinically relevant improvement in disease phenotype, the phenotype measures outlined in FIGS. 1A-1I were employed.

[9] = target: NKCC1 (Mus musculus, UniProt P55012); conditions: wild-type Slc12a2^+/+
Procedure: as §1
(§2) Because EGABA is heavily dependent on chloride transporters, the diuretic bumetanide was next tested, a highly specific NKCC1 inhibitor used in clinical practice to treat heart failure. Hannaert et al., “Rat NKCC2/NKCC1 Cotransporter Selectivity For Loop Diuretic Drugs,” Naunyn Schmiedebergs Arch. Pharmacol. 365:193-199 (2002); Dzhala et al., “NKCC1 Transporter Facilitates Seizures in the Developing Brain,” Nat. […] To ensure the molecular specificity of bumetanide, gramicidin-perforated patch recordings were also performed in conditional NKCC1 knock-out (Slc12a2^−/−) and wild-type littermates (Slc12a2′^+/+).

[10] = tested on: NKCC1; conditions: NKCC1 knock-out Slc12a2^−/−
Procedure: as §1, §2

[11] = tested on: astrocytes; conditions: n = 52 cells, mean±SEM; for Astrocyte calcium transient Freq.: awake Otc^spf-ash mice, 100 μm below pial surface
From the text: Body temperature was maintained with a heating pad.
Two-Photon Laser Scanning Microscopy (2PLSM)—A Mai Tai laser (SpectraPhysics) attached to a confocal scanning system (Fluoview 300, Olympus) and an upright microscope (IX51W) was used. Briefly, volume changes and calcium activity were imaged in cortex 100 μm below the pial surface, as described previously, using a 60× (1.1 NA) and a 20× (0.95 NA) lens, respectively. For in vivo volumetry xyzt image series were collected (z-step 1.5 μm, every 5 minutes) with acquisition time<20 seconds and laser power<40 mW. For in vivo calcium imaging, dual channel (rhod-2 and eGFP) frames were collected at 0.2 or 2 Hz. A low sampling rate and <20 mW laser were used to avoid photo damage. […] Therefore, each animal was tested for optimal loading by performing whisker stimulation, to verify a physiological calcium response. Wang et al., “Astrocytic Ca^2+ Signalling Evoked by Sensory Stimulation In Vivo,” Nat. Neurosci. 9:816-823 (2006), which is hereby incorporated by reference in its entirety. A calcium transient was defined as an event where the relative ratio between the rhod-2 and eGFP signal intensities (ΔF/F0) was >2 standard deviations […] from baseline. Beginning and end were defined as ΔF/F0>0.5 π and <0.5 π respectively. Amplitude was taken as the peak ΔF/F0 in this interval. For in situ volumentric imaging acute cortical slices were loaded with texas red hydrazide (1.5 μM, a fixable sulforhodamine 101 derivative) in aCSF for 50 minutes. Volume and calcium recordings were analyzed using previously described custom-made software (MatLab Inc.).
Data in Table 2 is from analysis of 2PLSM xyt series, where calcium indicator rhod-2 was used to detect astrocyte calcium transients 100 μm below the pial surface. Data are shown as mean±SEM.

[12] = tested on: Na^+—K^+-ATPase (NKA)
Procedure: Cell Culture Assays—Cultured neocortical astrocytes were prepared from P1-2 mouse and rat pups as previously described. Wang et al., “Astrocytes Modulate Neural Network Activity by Ca(2)(+)-Dependent Uptake of Extracellular K(+),” Science Signaling 5:ra26 (2012); Lin et al., “Gap-Junction-Mediated Propagation and Amplification of Cell Injury,” Nat. Neurosci. 1:494-500 (1998), which are hereby incorporated by reference in their entirety. For ^86Rb^+ experiments the cultures were incubated for 10 minutes±ouabain (1 mM). The potassium analogue ^86Rb^+ was then added to each well plate for 15 minutes (1 μCi, Perkin Elmer). The reaction was stopped by placing the cells on ice and washed with ice-cold aCSF. The cells were lysed and ^86Rb^+ uptake quantified by liquid scintillation counting (Beckman Coulter). For Na^+—K^+-ATPase activity, astrocyte cultures were utilized as previously described, and enzyme activity was quantified using the malachite green reaction (Sigma) and analyzed using spectrophotometry. Anupama et al. “Comparison of Na—K ATPase Activity in Rat Brain Synaptosome Under Various Conditions,” Neurochem. Int. 33:283-286 (1998), which is hereby incorporated by reference in its entirety.

[13] = tested on: astrocytes; conditions: awake Otc^spf-ash mice, ammonia load
Procedure: Two-Photon Laser Scanning Microscopy (2PLSM)—A Mai Tai laser (SpectraPhysics) attached to a confocal scanning system (Fluoview 300, Olympus) and an upright microscope (IX51W) was used. Briefly, volume changes and calcium activity were imaged in cortex 100 μm below the pial surface, as described previously, using a 60× (1.1 NA) and a 20× (0.95 NA) lens, respectively. For in vivo volumetry xyzt image series were collected (z-step 1.5 μm, every 5 minutes) with acquisition time<20 seconds and laser power<40 mW. For in vivo calcium imaging, dual channel (rhod-2 and eGFP) frames were collected at 0.2 or 2 Hz. A low sampling rate and <20 mW laser were used to avoid photo damage. […] Therefore, each animal was tested for optimal loading by performing whisker stimulation, to verify a physiological calcium response. Wang et al., “Astrocytic Ca^2+ Signalling Evoked by Sensory Stimulation In Vivo,” Nat. Neurosci. 9:816-823 (2006), which is hereby incorporated by reference in its entirety. A calcium transient was defined as an event where the relative ratio between the rhod-2 and eGFP signal intensities (ΔF/F0) was >2 standard deviations […] from baseline. Beginning and end were defined as ΔF/F0>0.5 π and <0.5 π respectively. Amplitude was taken as the peak ΔF/F0 in this interval. […] Volume and calcium recordings were analyzed using previously described custom-made software (MatLab Inc.).

[14] = tested on: cortical slices; conditions: 7 mM ammonia in perfusate
From the text: as §3, §4

[15] = Otc^spf-ash mice after 7.5 mmol kg^−1 i.p. ammonia load (baseline 0.32±0.07)
Procedure: Biochemical and Hemodynamic Analysis—Plasma ammonia analysis was performed on blood samples collected using 50 μL heparinized tubes from the femoral artery. A L-glutamate dehydrogenase based kit (Sigma) was used for the quantification of ammonia in plasma.

[16] = during cortical KCl application (12.5 mM) ± bumetanide 5 μM
[17] = cortical NH4Cl (10 mM) ± bumetanide
[18] = systemic NH4Cl (7.5 mmol kg^−1) ± bumetanide
[19] = Otc^spf-ash mice, ammonia 7.5 mmol kg^−1 i.p.
[20] = cortical superfusion (NH4Cl 10 mM, BUM 5 μM)
[21] = intraperitoneal injection (NH4Cl 7.5 mmol kg^−1, BUM 30 mg kg^−1)
[22] = after washout of cortical NH4Cl (± bumetanide)
[23] = during cortical NH4Cl application (10 mM) ± bumetanide 5 μM

Sequence of NKCC1 (Mus musculus, UniProt P55012) (P55012 whole entry): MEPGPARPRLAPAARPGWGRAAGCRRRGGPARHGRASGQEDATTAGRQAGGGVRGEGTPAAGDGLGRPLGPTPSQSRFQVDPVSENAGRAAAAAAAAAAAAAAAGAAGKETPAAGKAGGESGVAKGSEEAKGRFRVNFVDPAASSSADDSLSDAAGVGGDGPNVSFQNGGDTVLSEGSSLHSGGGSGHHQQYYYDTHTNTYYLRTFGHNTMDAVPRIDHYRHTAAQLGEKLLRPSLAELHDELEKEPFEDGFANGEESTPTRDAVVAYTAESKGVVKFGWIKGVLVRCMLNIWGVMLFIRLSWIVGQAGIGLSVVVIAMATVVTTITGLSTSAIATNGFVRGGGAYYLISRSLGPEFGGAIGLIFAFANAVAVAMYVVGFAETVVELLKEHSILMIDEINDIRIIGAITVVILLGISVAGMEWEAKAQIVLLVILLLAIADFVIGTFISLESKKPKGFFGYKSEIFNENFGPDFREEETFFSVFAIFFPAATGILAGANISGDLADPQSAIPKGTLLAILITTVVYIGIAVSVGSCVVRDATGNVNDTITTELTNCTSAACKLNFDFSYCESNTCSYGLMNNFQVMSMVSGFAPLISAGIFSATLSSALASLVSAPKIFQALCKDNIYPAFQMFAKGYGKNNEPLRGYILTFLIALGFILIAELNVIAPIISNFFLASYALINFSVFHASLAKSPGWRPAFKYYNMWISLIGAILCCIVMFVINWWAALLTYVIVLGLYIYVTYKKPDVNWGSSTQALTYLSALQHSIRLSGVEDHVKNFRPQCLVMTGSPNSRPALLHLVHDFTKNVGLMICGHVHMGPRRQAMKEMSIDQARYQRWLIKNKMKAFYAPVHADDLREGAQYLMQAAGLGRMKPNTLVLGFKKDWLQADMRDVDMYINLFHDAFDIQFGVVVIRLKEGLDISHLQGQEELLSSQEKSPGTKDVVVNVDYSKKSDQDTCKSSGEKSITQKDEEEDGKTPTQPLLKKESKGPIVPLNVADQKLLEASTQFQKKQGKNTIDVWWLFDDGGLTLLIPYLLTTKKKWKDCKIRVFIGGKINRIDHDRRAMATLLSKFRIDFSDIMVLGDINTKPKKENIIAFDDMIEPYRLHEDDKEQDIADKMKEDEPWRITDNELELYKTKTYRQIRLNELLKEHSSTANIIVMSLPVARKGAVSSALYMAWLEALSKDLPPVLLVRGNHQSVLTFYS

Compound	Paired-pulse ratio (PPR) [1, 16]	Spontaneous mouse movement [2]	ME frequency [3, 17]	ME frequency [3, 18]	Brain GABA [4, 19]	Brain Glutamate [4, 19]	Brain Glutamine [4, 19]	Brain GABA ([4]; WT mice)	Brain Glutamate ([4]; WT mice)	Brain Glutamine ([4]; WT mice)	[NH4^+]o [6, 20]	[NH4^+]o [6, 21]	Δ[K^+]o [6, 21]	Sensory-motor phenotype score (out of 11) [7]	Paired-pulse ratio (PPR) after washout [1, 22]	Paired-pulse ratio (PPR) [1, 23]	other results
[Cl-].[K+] [KCl]	1.48±0.22																Paired-pulse ratio (PPR) after washout ([1]; after washout of cortical KCl): 0.63±0.14
CCCCNc1cc(C(=O)O)cc(S(N)(=O)=O)c1Oc1ccccc1 [bumetanide]	0.92±0.18	3.17±0.46 m min^−1	0.10±0.02 ME min^−1	0.32±0.02 ME min^−1	2.39 ± 0.13 μmol g^−1 wet weight	14.27 ± 0.23 μmol g^−1 wet weight	8.70 ± 1.54 μmol g^−1 wet weight	2.55 ± 0.05 μmol g^−1 wet weight	14.38 ± 0.22 μmol g^−1 wet weight	4.52 ± 0.18 μmol g^−1 wet weight	0.52 ± 0.11 mM	0.42 ± 0.16 mM	0.0073 ± 0.015 mM	6.00±0.72	0.59±0.17	0.88±0.15	Effect on ammonia-induced depolarization of EGABA ([5]; bumetanide 5 μM pre-incubation): successfully prevented; Survival after ammonia overdose increased by a factor ([8]; NH4Cl overdose 10 mmol kg^−1, Otc^spf-ash mice): 3.87; Hazard rate ratio ([8]; NH4Cl overdose 10 mmol kg^−1, 95% confidence interval 0.08 to 0.87): 0.26
N [NH4Cl]		0.42±0.22 m min^−1	1.02±0.07 ME min^−1	2.66±0.14 ME min^−1	2.46 ± 0.13 μmol g^−1 wet weight	13.24 ± 0.33 μmol g^−1 wet weight	9.25 ± 0.34 μmol g^−1 wet weight	2.19 ± 0.12 μmol g^−1 wet weight	12.49 ± 0.15 μmol g^−1 wet weight	8.69 ± 0.33 μmol g^−1 wet weight	5.82 ± 0.18 mM	4.83 ± 0.52 mM	1.93 ± 0.19 mM	9.00±0.46	0.61±0.15	1.56±0.24	Depolarizing effect on EGABA [9]: +11.14±1.22; Depolarizing effect on EGABA [10]: +1.00±1.07; Astrocyte calcium transient Freq. [11]: 9.03 ± 1.16 Hz cell^−1 × 10^−3; Astrocyte calcium transient Freq. ([11]; listed as ammonia): 9.03±1.16 Hz cell^−1 × 10^−3; Astrocyte calcium Cell-cell correlation ([11]; awake mice): 0.26 ± 0.08; Astrocyte calcium transient Amplitude (ΔF/F0) ([11]; awake mice): 0.47 ± 0.32; Astrocyte calcium transient Duration ([11]; awake mice): 21.51 ± 4.55 s; Astrocyte calcium Cell-cell correlation ([11]; awake mice, listed as ammonia): 0.26±0.08; NKA activity with NH4Cl substituted for KCl ([12]; NH4Cl 15 mM, cell-free): able to maintain normal NKA activity; NKA-dependent (ouabain-sensitive) 86Rb^+ uptake ([12]; ammonia 0.5-10 mM, cultured astrocytes): dose-dependent reduction; Depolarization of EGABA ([5]; ammonia 7 mM in perfusate, pyramidal neurons, ramp voltage 0 to −120 mV): +12.33±3.66 mV; Astrocyte swelling [13]: no significant astrocyte swelling; Transient astrocyte shrinkage [13]: 5.04±0.85%; Δ[K^+]o ([6]; intraperitoneal injection (NH4Cl 7.5 mmol kg^−1, BUM 30 mg kg^−1), listed as ammonia): 1.93 ± 0.19 mM; Increase in [K^+]o [14]: 1.88 ± 0.13 mM; Increase in [NH4^+]o [14]: 3.67 ± 0.53 mM; Extracellular ammonia concentration in plasma [15]: 4.21 ± 0.59 mM
